pIC50, pKd: −log10 of the molar value. “Also recorded” adds a separate entry of the source.

For one data set, the system named is NMC797 and MV4; 11 cells. As to the kind of experiment: Cellular assays, cell lines not told apart (NMC797 and MV4;11). The data set is classed as cell-based, human. An excerpt:
Analysis of Cell Viability by ATPLite

Data set [1] deals with T1, BRD4(1) (Homo sapiens, UniProt O60885). As to the kind of experiment: BRD4(1) AlphaScreen (competition with biotinylated-JQ1). Further details: human BRD4 covering residues 44-168 (His-BRD4(1)) or 333-460 (His-BRD4(2)); made in house; host or cells: E. coli BL21 (DE3). The data set is classed as binding. The settings on record: for biochemical activity (in words): biochemical assay, compared with JQ1. A general note: Alpha assays give light when donor and acceptor beads are brought close together.
Experimental: BRD4(1) and BRDT(1) AlphaScreen™
Assays were performed with minimal modifications from the manufacturer's protocol (PerkinElmer, USA). All reagents were diluted in AlphaScreen™ buffer (50 mM HEPES, 150 mM NaCl, 0.1% w/v BSA, 0.01% w/v Tween20, pH 7.5) and allowed to equilibrate to room temperature prior to addition to plates. After addition of Alpha beads to master solutions all subsequent steps were performed under low light conditions. […] Plates were spun down at 150×g, 100 nL of compound in DMSO from stock plates were added by pin transfer using a Janus Workstation (PerkinElmer). The streptavidin-coated donor beads (10 μg/ml final) were added as with previous in a 2×, 10 μL volume. Following this addition, plates were sealed with foil to prevent light exposure and evaporation. The plates were spun down again at 150×g.

Data set [2] in a line: Mouse pharmacokinetics (cassette and single PK). It is filed as in vivo, CD1 mice. The settings on record: mice. The method, then:
FIGS. 9a-9b. Cassette PK properties of bivalent inhibitors. FIGS. 9a and 9b show PK parameters of mice 5-in-1 cassette PK. Five compounds (1 mg/kg) were intravenously administered to CD1 mice (n=3).
FIGS. 10a-10b. Individual PK properties of bivalent inhibitors. […] (6S+2S)-PEG0 (50 mg/kg) was intraperitoneally administered to CD1 mice (n=3). […] (6S+6S)-PEG7 (50 mg/kg) was intraperitoneally administered to CD1 mice (n=3).

Another data set addresses T2, CBP (Homo sapiens, UniProt Q92793).
T2 construct: purchased DiscoveRx (BROMOscan)
Briefly: BROMOscan, CBP. The data set is classed as binding. An excerpt:
(§1) To further profile bivalent inhibitors, fluorescent polarization (FP) and phage-based, multiplexed bromodomain displacement assays (BROMOscan™, DiscoveRx) were utilized.

Another data set has as its target T3, EP300 (Homo sapiens, UniProt Q09472).
T3 construct: purchased DiscoveRx (BROMOscan)
As to the kind of experiment: BROMOscan, EP300. The data set is classed as binding.
Source text: as §1

A further data set has as its target T4, WDR9(2) (Homo sapiens, UniProt Q9NSI6).
T4 construct: purchased DiscoveRx (BROMOscan)
As to the kind of experiment: BROMOscan, WDR9(2). It is filed as binding.
Source text: as §1

The subject of another data set is MYC. As to the kind of experiment: Immunoblot for MYC in MV4;11 cells. The data set is classed as cell-based, human. The method, then:
(§2) Cells were lysed with RIPA buffer supplemented with protease inhibitor cocktail (Roche) and 0.1% benzonase (Novagen) on ice for 20 minutes. The lysates were spun at 20,000×g for 15 minutes at 4° C. and protein concentration was determined by a BCA assay (Pierce). The following antibodies were used in this study: BRD4 (Bethyl labs), c-MYC and actin (both Santa Cruz), HEXIM1, PARP, cleaved caspase 3 (all Cell Signaling Technology). Blots were imaged using fluorescence-labeled secondary antibodies (LI-COR) on the OdysseyCLxImager (LI-COR).
(In western blotting, separated proteins are transferred to a membrane and probed.)

For a further data set, the system named is HEXIM1. As to the kind of experiment: Immunoblot for HEXIM1 in MV4;11 cells. It is filed as cell-based, human. The method, then: as §2
The target in a further data set is T5, BRD4 (Homo sapiens, UniProt O60885).
T5 construct: endogenous in cells; host or cells: MV4;11
Briefly: Immunoblot for BRD4 protein stability (degradation). It is filed as cell-based. The settings on record: immunoblots following compound treatment. The method, then:
as §2

For the next data set, the target named is BRD4(2) (Homo sapiens, UniProt O60885). Briefly: BROMOscan, BRD4(2).
The target in the next data set is BRD4(full) (Homo sapiens, UniProt O60885). As to the kind of experiment: BROMOscan, full length protein.
The target of another data set is BRD4(1,2) (Homo sapiens, UniProt O60885). Briefly: BROMOscan, tandem bromodomain construct.
The target in data set [3] is T1, BRD4(1). As to the kind of experiment: BROMOscan phage-based bromodomain displacement, BRD4(1).
In data set [4] the test system is NMC797 cells (BRD4-rearranged NUT midline carcinoma). Briefly: cells. Particulars: Homo sapiens, NMC-797, 72 h, read-out: IC50, proliferation.
Experimental: Cells were cultured at 37° C. with 5% CO2 in either DMEM (NMC797) or RPMI1640 (MV4; 11) supplemented with 10% FBS (Sigma), 100 U/mL penicillin, 100 μg/mL streptomycin, and 2 mM glutamine (Gibco). Cells tested negative for mycoplasma using the MycoAlert™ kit (Lonza).
Cells were plated at 1000 cells/well in 50 μL/well of media in 384 well white culture plates (Thermo). NMC797 cells were allowed to adhere overnight before adding 100 μL of compound in DMSO from compound stock plates using a Janus Workstation pin tool (PerkinElmer, USA). […] Cell viability was read out using the ATPlite kit (PerkinElmer). Plates were brought to room temperature prior to reagent addition. Lyophilized powder was resuspended in lysis buffer and diluted 1:2 with DI water.
Another data set concerns the target T6, neurokinin NK2 receptor (Homo sapiens, UniProt P21452).
T6 construct: purchased CEREP (Eurofins, Paris, France), ExpresSProfile
Briefly: Receptor profiling, [Nleu-10]-NKA radioligand binding. Particulars: 1 μM. An excerpt:
Receptor Profiling Studies

The next data set deals with wild-type BRD4(1,2). Briefly: Size-exclusion chromatography, wild-type tandem construct. The settings on record: half an equivalence of MT1. For orientation: In gel filtration, larger molecules generally elute earlier.
A further data set relates to BRD4(1,2^MUT) (N433A). As to the kind of experiment: Size-exclusion chromatography, second bromodomain mutant. The settings on record: half an equivalence of MT1.
Another data set has as its system BRD4(1^MUT,2) (N140A). Briefly: Size-exclusion chromatography, first bromodomain mutant. The settings on record: half an equivalence of MT1.
The next data set deals with BRD2, 3 and 4. Briefly: Cellular thermal shift assay (CETSA). It is filed as cell-based, human. Particulars: MV411 cells. The method, then:
Cellular Thermal Shift Assay (CETSA)
Compound or DMSO was incubated with 4×10^6 MV411 cells for 1 hr at 37° C. Cells were put on ice and washed with PBS and transferred to PCR tubes. Supernatant was aspirated to leave ˜5 μl in each tube and then cells were heat shocked in a thermocycler at 48.5° C. for 3 min to denature proteins. Cells were then allowed to cool at RT for 3 min and then resuspended in 35 μl lysis buffer (50 mM Tris-HCl pH 7.5, 5% glycerol, 100 mM NaCl, 1.5 mM MgCl, 0.2% NP-40+protease inhibitor cocktail (Halt)) and freeze-thawed 3 times with liquid nitrogen to lyse cells. Lysates were then spun at 20,000×g for 20 min to clarify and pellet aggregated protein. Supernatant was boiled with LDS and split into three samples for immunoblotting. Bands were quantified using Image Studio™ software and plotted using GraphPad PRISM v6 as triplicate means±SEM.

For the next data set, the system named is MV4; 11 cells. Briefly: Immunoblot for caspase-3 and PARP cleavage in MV4;11 cells. It is filed as cell-based, human. The settings on record: 100 nM. The method, then: as §2
Data set [5] relates to MV4; 11 human leukemia cells (mCherry+, Luciferase+). Briefly: Disseminated leukemia xenograft, second (survival) study. It is filed as in vivo, mice (NSG). Particulars: 44.2 μmol/kg. An excerpt:
A drug holiday was given for 2 days (day 29-30), Treatment resumed for 5 more days (31-35) and then ended. Mice were monitored and sacrificed when hind-limb paralysis was evident or body weight dropped by 15%.

Data set [6] relates to 55 ligand receptors, ion channels, and transport proteins. Briefly: Receptor profiling (ExpresSProfile, CEREP). The settings on record: 1 μM, more than 50 tested.
The subject of data set [7] is MV4; 11 human leukemia cells (mCherry+, Luciferase+). As to the kind of experiment: Disseminated leukemia xenograft, first study. The arrangement: mCherry+ leukemic burden in bone marrow by FACS: dose or concentration left out as unconfirmed.

T4 sequence (Q9NSI6 1313-1418 limits assumed): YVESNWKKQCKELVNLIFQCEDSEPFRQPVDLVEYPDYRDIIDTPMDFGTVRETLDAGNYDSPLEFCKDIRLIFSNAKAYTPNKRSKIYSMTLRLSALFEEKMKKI
T3 sequence (Q09472 1049-1156 limits assumed): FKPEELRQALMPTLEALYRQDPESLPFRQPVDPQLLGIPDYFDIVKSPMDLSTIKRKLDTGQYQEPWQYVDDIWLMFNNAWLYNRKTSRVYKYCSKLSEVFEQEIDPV
T6 sequence (P21452 whole entry): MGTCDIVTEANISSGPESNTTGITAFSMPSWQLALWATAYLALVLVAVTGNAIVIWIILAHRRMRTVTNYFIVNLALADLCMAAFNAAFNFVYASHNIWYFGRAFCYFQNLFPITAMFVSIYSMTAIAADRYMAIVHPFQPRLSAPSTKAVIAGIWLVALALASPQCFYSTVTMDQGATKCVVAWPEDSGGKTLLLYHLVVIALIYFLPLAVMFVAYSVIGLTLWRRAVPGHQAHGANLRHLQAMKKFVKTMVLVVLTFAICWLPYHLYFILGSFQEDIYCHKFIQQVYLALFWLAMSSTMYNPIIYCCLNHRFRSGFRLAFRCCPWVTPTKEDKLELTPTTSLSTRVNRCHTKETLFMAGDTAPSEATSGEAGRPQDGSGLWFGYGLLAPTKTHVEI
T2 sequence (Q92793 1085-1192 limits assumed): as the sequence (Q09472 1049-1156 limits assumed) above, with S47N, I73V, Y93F, S98A counted along it

With `COC(=O)C[C@@H]1N=C(c2ccc(Cl)cc2)c2c(sc(C(=O)NCCOCCNC(=O)c3sc4c(c3C)C(c3ccc(Cl)cc3)=N[C@@H](CC(=O)OC)c3nnc(C)n3-4)c2C)-n2c(C)nnc21` [(2+2)-PEG1, Dimethyl 2,2′-((6S,6′S)-(((oxybis(ethane-2,1-diyl))bis(azanediyl))bis(carbonyl))bis(4-(4-chlorophenyl)-3,9-dimethyl-6H-thieno[3,2-f][1,2,4]triazolo[4,3-a][1,4]diazepine-2,6-diyl))diacetate], the “cellular activity (in words)” value was “not properly reflected in cellular activity” in the data set on NMC797 and MV4; 11 cells (11, compared with JQ1); “did not translate into cellular activity” in the data set on NMC797 and MV4; 11 cells (11, compared with JQ1, listed as (2+2) homodimer). Moreover, the pIC50 at BRD4(1) [1] (AlphaScreen, BRD4(1)) was 8.93. In addition, the “fold increase in biochemical potency / inhibitory activity” value on BRD4(1) [1] (BRD4(1), relative to monomeric inhibitor) was 20 fold.
Consider `COC(=O)C[C@@H]1N=C(c2ccc(Cl)cc2)c2c(sc(C(=O)NCCNC(=O)C[C@@H]3N=C(c4ccc(Cl)cc4)c4c(sc(C)c4C)-n4c(C)nnc43)c2C)-n2c(C)nnc21` [(6+6)-PEG1, Methyl 2-((S)-4-(4-chlorophenyl)-2-((2-(2-((S)-4-(4-chlorophenyl)-2,3,9-trimethyl-6H-thieno[3,2-f][1,2,4]triazolo[4,3-a][1,4]diazepin-6-yl)acetamido)ethyl)carbamoyl)-3,9-dimethyl-6H-thieno[3,2-f][1,2,4]triazolo[4,3-a][1,4]diazepin-6-yl)acetate], for which the “cellular activity (in words)” value in the data set with NMC797 and MV4; 11 cells (11, compared with JQ1) is “did not show improved activity”; with NMC797 and MV4; 11 cells (11, compared with JQ1, listed as (6+6) homodimer), “did not increase biochemical or cellular activity”. The “biochemical activity (in words)” value at BRD4(1) [1] is “did not show improved activity”; on BRD4(1) [1] (listed as (6+6) homodimer), “did not increase biochemical or cellular activity”.
In the case of `COC(=O)C[C@@H]1N=C(c2ccc(Cl)cc2)c2c(sc(C(=O)NCCNC(=O)C[C@@H]3N=C(c4ccc(Cl)cc4)c4c(sc(C)c4C)-n4c(C)nnc43)c2C)-n2c(C)nnc21` [(6S+2S)-PEG0, Methyl 2-((S)-4-(4-chlorophenyl)-2-((2-(2-((S)-4-(4-chlorophenyl)-2,3,9-trimethyl-6H-thieno[3,2-f][1,2,4]triazolo[4,3-a][1,4]diazepin-6-yl)acetamido)ethyl)carbamoyl)-3,9-dimethyl-6H-thieno[3,2-f][1,2,4]triazolo[4,3-a][1,4]diazepin-6-yl)acetate], the “PK properties (in words)” value in [2] is recorded as “comparable PK properties to MT1”.
A word on the pKd: it is −log10 of the Kd, conventionally taken in molar units. With `COC(=O)C[C@@H]1N=C(c2ccc(Cl)cc2)c2c(sc(C(=O)NCCOCCNC(=O)C[C@@H]3N=C(c4ccc(Cl)cc4)c4c(sc(C)c4C)-n4c(C)nnc43)c2C)-n2c(C)nnc21` [(6S+2S)-PEG1, Methyl 2-((S)-4-(4-chlorophenyl)-2-((2-(2-(2-((S)-4-(4-chlorophenyl)-2,3,9-trimethyl-6H-thieno[3,2-f][1,2,4]triazolo[4,3-a][1,4]diazepin-6-yl)acetamido)ethoxy)ethyl)carbamoyl)-3,9-dimethyl-6H-thieno[3,2-f][1,2,4]triazolo[4,3-a][1,4]diazepin-6-yl)acetate], in the data set with NMC797 and MV4; 11 cells (11, compared with JQ1), the “cellular activity (in words)” value was “single-digit to sub-nanomolar activity”. In addition, the pKd is 5.60 at CBP, 5.30 on EP300 and 5.00 on WDR9(2). In the data set with MYC (10 nM), the “time of maximum effect on MYC” value was 2 h. Moreover, the “lowest concentration with MYC downregulation” value with MYC (within two hours) came out at 10 nM. Besides, the “time points of HEXIM1 upregulation” value with HEXIM1 fell in the range of 4 to 24 h. In addition, the “effect on BRD4 protein stability” value at BRD4 is “No effect on protein stability”. The “displacement of phage (in words)” value at BRD4(2), on BRD4(full), on BRD4(1,2) and at BRD4(1) [3] was “picomolar displacement” in each case. Also, on BRD4(1) [1], the “biochemical activity (in words)” value is “single-digit to sub-nanomolar activity”.
As to `COc1cc2c(cc1-c1c(C)noc1C)ncc1[nH]c(=O)n([C@H](C)c3ccccn3)c12` [I-BET151, reference compound], the “cellular activity (in words)” value in the data set on NMC797 and MV4; 11 cells (11, compared with JQ1) is listed as “comparable performance to JQ1”. Besides, the “biochemical activity (in words)” value at BRD4(1) [1] is “comparable performance to JQ1”.
Turning to `Cc1sc2c(c1C)C(c1ccc(Cl)cc1)=N[C@@H](CC(=O)OC(C)(C)C)c1nnc(C)n1-2` [JQ1, reference compound], the pIC50 in [4] was 7.16.
As for “Methyl 2-((S)-4-(4-chlorophenyl)-2-((2-(2-((S)-4-(4-chlorophenyl)-2,3,9-trimethyl-6H-thieno[3,2-f][1,2,4]triazolo[4,3-a][1,4]diazepin-6-yl)acetamido)ethyl)carbamoyl)-3,9-dimethyl-6H-thieno[3,2-f][1,2,4]triazolo[4,3-a][1,4]diazepin-6-yl)acetate [MT1]”, in the data set with NMC797 and MV4; 11 cells (11, compared with JQ1), the “cellular activity (in words)” value was “translated well in cellular activities”. The “PK properties (in words)” value in [2] is reported as “improved PK properties”. In addition, the “exposure in vivo (in words)” value in [2] is given as “highly prolonged exposure in vivo”. The “inhibition of radioligand agonist binding” value on neurokinin NK2 receptor is “only partial inhibition of binding”. For the same molecule, the results for the “dimerization by SEC” value in the data set on wild-type BRD4(1,2), in the data set with BRD4(1,2^MUT) (N433A) and in the data set on BRD4(1^MUT,2) (N140A) were “absence of dimerization”, “Complete dimerization” and “partial dimerization”, respectively. Also, the “concentrations needed for stabilization, compared with JQ1” value with BRD2, 3 and 4 was “lower concentrations”. In addition, the “thermal stabilization of BET proteins” value with BRD2, 3 and 4 (48.5° C. heat shock) is “stabilized BRD2, 3 and 4 in a concentration dependent manner”. Moreover, the “apoptosis by caspase-3 and PARP cleavage” value with MV4; 11 cells is “Significant apoptosis”. Further, in data set [5], the “body weight after drug withdrawal” value was “recovered body weight after drug was withdrawn”. For the same molecule, in data set [5] (compared to JQ1), the “disease monitored by bioluminescence” value is “significantly reduced”. Further, the overall survival result in data set [5] (compared to vehicle or JQ1) is “significantly increased overall survival”. In addition, in [5] (of 11 mice), the “mice sacrificed due to emaciation from drug toxicity” value is given as “two”. Moreover, the “off-target effects on receptors and ion channels” value in data set [6] is recorded as “limited activity; also recorded: few off-target effects”. In data set [7] (half an equivalence (22.1 μmol/kg), 14 days, compared to vehicle or JQ1), the “leukemic burden by bioluminescence imaging” value is “significantly reduced leukemic burden”. Besides, in data set [7] (post-mortem, MT1 at 22.1), the “mCherry+ leukemic burden in bone marrow by FACS” value is “significantly decreased”.
